Laboratory results as given in the NIST ThermoML archive (doi:10.1016/j.jct.2006.03.003).
Numbers after ± are expanded uncertainties.

Tests used:
[1] = 298.15 K; 101.33 kPa; Liquid
[2] = xn = mol fraction of the nth substance listed; conditions: 298.15 K; 101 kPa; Liquid; x1 = 0.61

| Compound | mass density [1] [kg/m3] | mass density [2] [kg/m3] |
| --- | --- | --- |
| CC(C)=O [acetone] | 784.65 ± 0.31 |  |
| CCC(C)=O [butanone] | 799.75 ± 0.29 |  |
| COC(F)(F)C(F)(C(F)(F)F)C(F)(F)F [methyl nonafluoroisobutyl ether] + COC(F)(F)C(F)(F)C(F)(F)C(F)(F)F |  | 1516.5 ± 1.8 |
| CCC(=O)CC [pentan-3-one] | 809.09 ± 0.28 |  |
